{"source": "paper PMC1082716", "about": "“Blockade of chemokine-induced signalling inhibits CCR5-dependent HIV infection in vitro without blocking gp120/CCR5 interaction” (Retrovirology, 2005)", "key": {"[1]": {"test_system": "SDF-1α induced chemotaxis", "experiment": "SDF-1α induced chemotaxis (ChemoTx transwell)", "assay_type": "cell-based", "conditions": "100 ng/ml SDF1α; various concentrations of inhibitor in both compartments; 5 × 10^4 cells per well; 2 h, 37°C; MTT; triplicate", "procedure": "Figure 2 Effect of Peptide 3 on gp120:V3 loop peptide binding to cells. (a) The binding of 100 μM N-terminal biotinylated gp120:V3(IIIb) to THP-1 cells was measured in the presence of various concentrations of peptide 3. […] (b) Chemotaxis in response to 100 ng/ml SDF1α was measured in the presence of various concentrations of peptide 3. […] (e) As for (a) except that the effect of Peptide 3 on the binding of gp120:V3(BaL) to THP-1 cells was determined. (f) As for (b) except that the effect of Peptide 3 on chemotaxis induced by 25 ng/ml MIP1α was determined. All binding reactions were performed with 10^6 cells in 100 μl of binding medium at 4°C. Chemotaxis assays were performed with 5 × 10^4 cells per well. Values are mean ± SEM of triplicate determinations.\nChemotaxis experiments were performed essentially as previously described, using the ChemoTx disposable 96-well transwell migration plates, with PVP-free membrane (6 μm pore size). Chemoattractant (lower compartment) and cells upper compartment) were suspended in Gey's Balanced salt solution + 1 mg/ml BSA. […] Migration was allowed to proceed for 2 hours at 37°C. […] Each condition was determined in triplicate, and the number of cells migrating in the absence of chemoattractant was subtracted to determine the chemokine-dependent chemotaxis which was reported."}, "CXCR4": {"molecular_target": "T1, CXCR4 (Homo sapiens, UniProt P61073)", "T1 construct": "CXCR4, which is expressed on both THP-1 and Jurkat cells, but at higher levels on the T-cell line; endogenous in cells; host or cells: Jurkat T-cells (whole cells, 10^6 per well, 4°C)", "T1 sequence (P61073 whole entry)": "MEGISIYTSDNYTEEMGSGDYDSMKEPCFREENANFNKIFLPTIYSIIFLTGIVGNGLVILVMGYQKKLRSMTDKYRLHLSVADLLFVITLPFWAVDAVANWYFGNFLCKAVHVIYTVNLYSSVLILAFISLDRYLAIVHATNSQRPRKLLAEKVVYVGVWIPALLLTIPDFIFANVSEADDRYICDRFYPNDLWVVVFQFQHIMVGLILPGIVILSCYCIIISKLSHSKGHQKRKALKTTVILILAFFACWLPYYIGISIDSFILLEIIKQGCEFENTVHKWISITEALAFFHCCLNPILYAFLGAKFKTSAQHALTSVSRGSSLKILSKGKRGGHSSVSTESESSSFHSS", "experiment": "Specific binding of biotinylated gp120:V3(IIIb) peptide to Jurkat cells", "conditions": "100 μM biotinylated gp120:V3(IIIb); various concentrations of inhibitor; 10^6 cells in 100 μl, 4°C; triplicate"}, "[2]": {"test_system": "chemokine-receptor-induced ERK activity", "conditions": "MEK inhibitor; ref [25]; cited from earlier work", "source_text": "(§1) It has been proposed that this chemotactic signalling might play a role during HIV infection in vivo, possibly by recruiting susceptible T-cells to sites of viral replication. In other retroviruses envelope/receptor interactions are known to be mitogenic and this may facilitate nuclear translocation and integration of the provirus. In HIV, however, it is not known whether the ability to productively engage the chemokine receptors in this way plays any direct role in acute viral entry and subsequent productive infection of the target cell."}, "HIV": {"test_system": "HIV", "conditions": "cited from earlier work", "source_text": "as §1, with “cell. […] Since BSCIs, such as Peptide 3, ...” for “cell.”"}, "HIV (IIIb) [3]": {"test_system": "HIV (IIIb)", "experiment": "HIV (IIIb) replication in Jurkat T-cells, supernatant reverse transcriptase activity", "assay_type": "cell-based", "conditions": "HIV-1 IIIb, Jurkat; SDF1α 100 ng/ml; two weeks; average of six separate experiments", "procedure": "HIV infection of Jurkat T-cells using the laboratory-adapted T-tropic isolate IIIb was monitored using two different assays. Firstly, Jurkat T-cells in 96-well plates were pre-treated with either Peptide 3, vehicle (as a negative control) or SDF1α (as a positive control) for 4 hours, then exposed to HIV virus (10^6 TCID50) and pulsed at 2–3 day intervals with Peptide 3, SDF1α or medium alone as appropriate. After two weeks in culture, the extent of viral infection was assayed by measuring the reverse transcriptase activity in the supernatant, as a measure of viral replication in the culture In six separate experiments, Peptide 3 (100 μM) had no effect on virus replication following HIV exposure (Fig 3a), while SDF1α inhibited reverse transcriptase activity by an average of 75%. No effect was seen on cell viability under any of the treatment conditions.\nHIV-1 stocks were prepared in the following manner. HIV-1 IIIb (provided by the MRC AIDS Reagent Programme) was used to infect Jurkat T cells and the progression of infection was monitored using the reverse transcriptase assay for 10–14 days. […] Stocks of HIV-1 MN strain were prepared in a similar manner, except that H9 T cells were used and the progression of infection was monitored by immunofluoresence (because of the low RT activity) in this strain. […]"}, "HIV strain MN": {"test_system": "HIV strain MN", "experiment": "HIV (MN) infection of THP-1 cells, p24gag immunofluorescence", "assay_type": "cell-based, HIV-1", "conditions": "HIV strain MN; Peptide 3 100 μM, MIP1α 100 ng/ml, SDF1α 100 ng/ml; 72 h; p24gag immunofluorescence", "procedure": "However, it was possible to assess HIV infectivity of THP-1 cells using high sensitivity immunofluorescent detection of p24^gag. THP-1 cells were differentiated with hydrocortisone and PMA, then treated with TNFα, resulting in adherent monolayers on glass chamber slides. The THP-1 cells were then treated with either Peptide 3 (100 μM), MIP1α (100 ng/ml) or SDF1α (100 ng/ml) as for the Jurkat cells. THP-1 cells were infected with HIV strain MN at a concentration previously validated to produce easily detectable infection and grown for 72 h prior to fixation and staining for p24^gag. In contrast to the findings with HIV strain IIIb infection of Jurkat T cells, Peptide 3 inhibited infection of THP-1 cells by more than 80% (Fig 3c), very similar to the effect of MIP1α.\nTHP-1 cells were differentiated prior to infection with hydrocortisone and PMA in 8-well chamber slides. Sixteen hours prior to infection, TNFα was added (100 ng/ml). Twelve hours later, the medium was aspirated and replaced with fresh medium containing the test peptides or chemokines as appropriate. After a further four hours, virus from the frozen stocks was adeed to the cells, which were the processed for immunofluoresence between 28 h and 72 h after infection.\nJurkat cells following HIV infection were attached to 8-well chamber slides (Becton-Dickinson) by spinning the slides using a plate rotor in a Labofuge centrifuge (Heraeus) at 3,000 × g for 5 minutes. Attached Jurkat cells or THP-1 cells were then fixed by dipping the slides into ice-cold 70% ethanol for 90 seconds. Non-specific binding was blocked by incubation with 3% fatty acid-free BSA in TBS for 1 hour at room temprature. Cells were incubated with the mouse monoclonal anti-HIV-1 p24^gag antibody EH12E1 (ref 38;AIDS Reagent Program, NIBSC) at 10 μg/ml in 3% BSA in TBS at room temperature overnight. Unbound antibody was removed with 3 × 3 min washes in PBS, and bound antibody was then fixed to the slide by incubation with 3.8% phosphate buffered formalin pH7.2 for 10 mins at room temperature, followed by 3 further 3 min washes in PBS. Bound antibody was visualised using donkey anti-mouse IgG FITC conjugate (715-095-150; Jackson Immunoresearch) at 30 μg/ml in 3% BSA/TBS + 1 ng/ml Hoescht 33342 for 6 hours at room temperature. Twelve fields of view (100× magnification) were captured from each well of the chamber slide using an Olympus Provis AX electronic microscope connected to a Power Macintosh 8500, running OpenLab image analysis software (Improvision), under both FITC illumination conditions (NIBA filter block; λex = 470–490 nm, dichroic mirror = 505 nm, λem = 515–550 nm) and UV illumination conditions (Chroma 31000; λex = 340–380 nm, dichroic mirror = 400 nm, λem = 435–485 nm). Images were acquired with a Hamamatsu C4742-05 monochrome digital camera with 10-bit depth in a 1280-1024 pixel field connected to a DIG Snapper frame grabber. The exposure time, amplifier gain and offset values were controlled by the OpenLab software and were held constant throughout the experiment. A background (an image captured without a slide under the objective) was digitally subtracted from every image. A threshold was then applied to each image which was the lowest threhold that detected <1% of the pixels of an image of uninfected cells stained under identical conditions. The number of objects exceeding this threshold in each field of view were counted. […]"}, "HIV (IIIb) [4]": {"test_system": "HIV (IIIb)", "experiment": "HIV (IIIb) infection of Jurkat T-cells, p24gag immunofluorescence", "assay_type": "cell-based", "conditions": "SDF1α 100 ng/ml, approximately 48 h after infection, 12 fields of view from each of two wells", "procedure": "HIV infection of Jurkat T-cells was also monitored by high sensitivity quantitative immunofluoresence detection of viral p24^gag expression. Jurkat cells were infected with HIV in the presence or absence of Peptide 3 (100 μM) or SDF1α (100 ng/ml) as described above. Approximately 48 h after infection, the cells were attached to glass slides using a cytospin and then fixed by immersion in ice-cold 70% ethanol for 90 seconds. Expression of p24^gag was determined using quantitative immunofluoresence as previously described, except that the primary antibody was post-fixed to the section using paraformaldehyde to increase the sensitivity of the technique (see Methods). Viral infectivity was expressed as the number of cells stained for p24^gag expressed as a proportion of the total number of cells (detected using Hoechst 33342 nuclear dye). […]\nJurkat cells following HIV infection were attached to 8-well chamber slides (Becton-Dickinson) by spinning the slides using a plate rotor in a Labofuge centrifuge (Heraeus) at 3,000 × g for 5 minutes. […] A threshold was then applied to each image which was the lowest threhold that detected <1% of the pixels of an image of uninfected cells stained under identical conditions. The number of objects exceeding this threshold in each field of view were counted. […]"}, "[5]": {"test_system": "Gi-mediated signalling through chemokine receptors", "conditions": "ref [24]; cited from earlier work", "source_text": "as §1"}}}
{"molecule": "c1cc(CN2CCCNCCNCCCNCC2)ccc1CN1CCCNCCNCCCNCC1", "note": "[AMD3100, reference compound]", "values": [{"measurement": "Effect on SDF-1α induced chemotaxis", "setting": "[1]", "value": "blocked"}, {"measurement": "Effect on binding of gp120:V3(IIIb) to Jurkat cells", "setting": "CXCR4", "value": "blocked"}]}
{"molecule": "N#CC(=C(/N)Sc1ccccc1N)/C(C#N)=C(/N)Sc1ccccc1N", "note": "[Peptide U0126]", "values": [{"measurement": "Effect on chemokine-receptor-induced ERK activity", "setting": "[2]", "value": "block"}, {"measurement": "Effect on HIV infection in vitro", "setting": "HIV; MEK inhibitor, ref [25]", "value": "block"}]}
{"molecule": "SDF1α [reference compound]", "values": [{"measurement": "Inhibition of reverse transcriptase activity", "setting": "HIV (IIIb) [3]", "value": 75, "unit": "%"}, {"measurement": "Effect on HIV infection of THP-1 cells (in words)", "setting": "HIV strain MN", "value": "no statistically significant effect"}, {"measurement": "Inhibition of viral infectivity (p24gag)", "setting": "HIV (IIIb) [4]", "value": "more than 80%"}]}
{"molecule": "pertussis toxin", "values": [{"measurement": "Effect on Gi-mediated signalling through chemokine receptors", "setting": "[5]", "value": "blocks"}, {"measurement": "Effect on cellular infection with HIV in vitro", "setting": "HIV; ref [24] (Guntermann), [25] (Montes; similar results)", "value": "block cellular infection with HIV in vitro"}]}
{"molecule": "MIP1α: chemokine used at 100 ng/ml (protein, UniProt P10147 24-92, looked up) C-C motif chemokine 3: SLAADTPTACCFSYTSRQIPQNFIADYFETSSQCSKPGVIFLTKRSRQVCADPSEEWVQKYVSDLELSA", "values": [{"measurement": "Effect on HIV infection of THP-1 cells (in words)", "setting": "HIV strain MN", "value": "very similar"}]}
